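Dose response: 5 concentrations. Exposure: 48 h. Format: 96-well plates. Endpoint: linear interpolation; highest concentration if not reached. The concentration for 50% growth inhibition is given as GI50.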 The source made the active and inactive calls. Cut-off read from the data, not from the text of the source: active = GI50 up to about 1.1 µM and inactive = higher.
Tests used:
Experiment in all cases: NCI anticancer screen, dose series, 48 h
[1] = system: OVCAR-4
[2] = system: A549
[3] = system: CCRF-CEM
[4] = system: NCI-H522
[5] = system: SK-MEL-5
[6] = system: HOP-92
[7] = system: SW-620
[8] = system: HCC 2998
[9] = system: OVCAR-8
[10] = system: SK-OV-3
[11] = system: T47D
[12] = system: COLO 205
[13] = system: MDA-MB-435
[14] = system: A498
[15] = system: MCF7
[16] = system: RPMI-8226
[17] = system: CAKI-1
[18] = system: SK-MEL-2
[19] = system: HCT-116
[20] = system: DU-145

Measured: GI50

C[C@]1(O)CC[C@H]2[C@@H]3CCc4cc(O)ccc4[C@H]3CC[C@@]21C
inactive: [1] > 100 µM | [2] 3.94 µM | [3] 2.37 µM | [6] 6.95 µM | [9] 7.48 µM | [10] 89.5 µM | [11] 38.5 µM | [12] 7.35 µM | [17] 3.62 µM
active: [4] 0.991 µM | [5] 0.391 µM | [7] 0.568 µM | [8] 0.233 µM | [13] 0.186 µM | [14] 0.456 µM | [15] 0.665 µM | [16] 0.687 µM | [18] 0.773 µM

COc1ccc(OC)c(C23CCCC(C2)N(C)CC3)c1 (stereo unspecified)
inactive: [1] 24.9 µM | [2] 22.3 µM | [19] 13.8 µM | [11] 33.3 µM | [13] 20.1 µM | [14] 32.3 µM | [15] 16.6 µM | [16] 12.7 µM | [17] 46.5 µM | [20] 32.7 µM | [18] 21.8 µM

CC1(C)C=[N+]([O-])C(C)(C)N1O
inactive: [1] > 10 µM | [2] > 10 µM | [3] > 10 µM | [4] > 10 µM | [6] > 10 µM | [7] > 10 µM | [8] > 10 µM | [9] > 10 µM | [19] > 10 µM | [11] > 10 µM | [12] > 10 µM | [13] > 10 µM | [15] > 10 µM | [16] > 10 µM | [17] > 10 µM | [20] > 10 µM | [18] > 10 µM

Nc1nc(Cl)cc(/N=N\c2ccccc2)n1
inactive: [2] 48.2 µM | [3] 13 µM | [4] 30.6 µM | [5] 15.8 µM | [6] 2.33 µM | [7] > 100 µM | [9] 33.2 µM | [19] 16.4 µM | [10] 66.1 µM | [11] 32.6 µM | [12] 27.5 µM | [13] > 100 µM | [14] 61.5 µM | [15] 48.1 µM | [16] 20.7 µM | [17] 37.6 µM | [20] > 100 µM | [18] 20.8 µM

c1ccc(CSCCC(SCc2ccccc2)SCc2ccccc2)cc1
inactive: [1] > 10 µM | [2] > 10 µM | [3] > 10 µM | [4] > 10 µM | [5] > 10 µM | [6] 9.66 µM | [7] > 10 µM | [8] > 10 µM | [9] > 10 µM | [19] > 10 µM | [10] > 10 µM | [11] > 10 µM | [12] > 10 µM | [14] > 10 µM | [15] > 10 µM | [16] > 10 µM | [17] > 10 µM | [20] > 10 µM | [18] > 10 µM

C=CC(O)(CBr)CCC(Br)C(=C)C (stereo unspecified)
inactive: [1] > 10 µM | [2] > 10 µM | [3] > 10 µM | [4] > 10 µM | [5] > 10 µM | [7] > 10 µM | [8] > 10 µM | [9] > 10 µM | [19] > 10 µM | [10] > 10 µM | [11] > 10 µM | [12] > 10 µM | [13] > 10 µM | [14] > 10 µM | [15] > 10 µM | [16] > 10 µM | [17] > 10 µM | [20] > 10 µM | [18] > 10 µM

COC(=O)c1ccc(/C=C2\Cc3ccccc3C2=O)cc1
inactive: [1] > 100 µM | [2] > 100 µM | [3] > 100 µM | [4] > 100 µM | [5] > 100 µM | [7] > 100 µM | [8] > 100 µM | [9] > 100 µM | [19] > 100 µM | [10] > 100 µM | [11] > 100 µM | [12] > 100 µM | [13] > 100 µM | [15] > 100 µM | [16] > 100 µM | [17] > 100 µM | [20] > 100 µM

CC(=O)OCC1OC(NC(=S)CCSc2nc3ccccc3c(=O)n2-c2ccccc2)C(OC(C)=O)C(OC(C)=O)C1OC(C)=O (stereo unspecified)
inactive: [2] > 100 µM | [3] 27.2 µM | [4] 25.6 µM | [5] 45 µM | [6] 16.9 µM | [7] 41.2 µM | [8] 39.3 µM | [9] > 100 µM | [19] 73.5 µM | [10] 46.9 µM | [11] 30.5 µM | [12] 40.1 µM | [13] 52 µM | [15] > 100 µM | [16] > 100 µM | [17] > 100 µM | [20] > 100 µM | [18] 22.1 µM

Cc1ccc(S(=O)(=O)N2CCc3cc(O)c([N+](=O)[O-])cc32)cc1
inactive: [1] > 100 µM | [2] > 100 µM | [3] > 100 µM | [4] > 100 µM | [5] > 100 µM | [7] > 100 µM | [9] > 100 µM | [19] > 100 µM | [10] > 100 µM | [11] > 100 µM | [12] > 100 µM | [13] > 100 µM | [14] > 100 µM | [15] > 100 µM | [17] > 100 µM | [20] > 100 µM | [18] > 100 µM

COc1cccc(C2c3cc4c(cc3OC(N3CCCC3)C2c2ccccc2)OCO4)c1O (stereo unspecified)
inactive: [2] 11.6 µM | [3] 5.13 µM | [4] 12 µM | [5] 10.8 µM | [7] 7.78 µM | [8] 11 µM | [9] 10.3 µM | [19] 4.21 µM | [11] 5.97 µM | [12] 7.24 µM | [13] 6.59 µM | [15] 8.65 µM | [16] 5.69 µM | [17] 2.88 µM | [20] 11.9 µM | [18] 12.1 µM

NS(=O)(=O)c1ccc(CNC(=S)NC(=O)Nc2ccc(Cl)c(Cl)c2)cc1
inactive: [1] 31.5 µM | [2] 23.6 µM | [3] 16.4 µM | [4] 16 µM | [5] 17.8 µM | [6] 17.7 µM | [7] 18.9 µM | [9] 20.3 µM | [19] 17.5 µM | [10] 19.6 µM | [11] 18.1 µM | [12] 33 µM | [14] 16.2 µM | [15] 19.5 µM | [16] 16 µM | [20] 33.3 µM | [18] 14.6 µM

COc1cc(/C=N/NC(=O)c2c(Cl)c(Cl)c(Cl)c(Cl)c2-c2nc3cc(C(=O)c4ccccc4)ccc3[nH]2)ccc1O
inactive: [1] 49.1 µM | [2] 42.1 µM | [3] 23 µM | [4] 22.1 µM | [5] 20.4 µM | [6] 76.9 µM | [7] 34.5 µM | [9] 59.3 µM | [19] 36.1 µM | [10] 56.4 µM | [11] 22.6 µM | [12] 24.8 µM | [13] 13.8 µM | [15] 26.5 µM | [16] 30.8 µM | [17] 62.2 µM | [20] 73.8 µM | [18] 39.3 µM

O/N=C1/CC2(N3CCOCC3)C3CC/C(=N\O)C2CC1(Cc1ccccc1)C3 (stereo unspecified)
inactive: [1] > 100 µM | [2] > 100 µM | [3] > 100 µM | [4] > 100 µM | [5] 44.4 µM | [7] > 100 µM | [8] > 100 µM | [9] > 100 µM | [19] 44.5 µM | [10] > 100 µM | [11] 67 µM | [12] 82 µM | [13] > 100 µM | [14] > 100 µM | [15] 66.4 µM | [17] > 100 µM | [20] > 100 µM | [18] > 100 µM

O=c1[nH]c(NCc2ccncc2)nc2[nH]cnc12
inactive: [1] > 100 µM | [2] > 100 µM | [3] > 100 µM | [4] > 100 µM | [5] > 100 µM | [6] > 100 µM | [7] > 100 µM | [8] > 100 µM | [9] > 100 µM | [19] > 100 µM | [10] > 100 µM | [11] > 100 µM | [12] > 100 µM | [13] > 100 µM | [15] > 100 µM | [16] > 100 µM | [17] > 100 µM | [20] > 100 µM | [18] > 100 µM

COC(=O)[C@@H]1CN(C(=O)c2ccccc2)C(=O)N1
inactive: [1] > 100 µM | [2] > 100 µM | [3] > 100 µM | [4] > 100 µM | [5] > 100 µM | [6] > 100 µM | [7] > 100 µM | [9] > 100 µM | [19] > 100 µM | [11] > 100 µM | [13] > 100 µM | [14] > 100 µM | [16] > 100 µM | [17] > 10 µM | [20] > 100 µM

CN(C)c1nc2n(CCO)ccnc-2c(=O)n1
inactive: [1] > 100 µM | [2] > 100 µM | [3] > 100 µM | [4] > 100 µM | [5] > 100 µM | [6] > 100 µM | [7] > 100 µM | [8] > 100 µM | [9] > 100 µM | [19] > 100 µM | [10] > 100 µM | [11] > 100 µM | [12] > 100 µM | [13] > 100 µM | [14] > 100 µM | [16] > 100 µM | [17] > 100 µM | [20] > 100 µM | [18] > 100 µM

Reference: ChEMBL document CHEMBL1201862, “PubChem BioAssay data set” (2004)
